Assay results as given in the supplement of paper PMC11281043.

Columns and labels:
Details in all cases: exposure: 6-8 hpf to 5 dpf, scored at 6 dpf
[1] = tested on: Danio rerio embryo/larva; assay: max % larvae with pigmentation defects across tested concentrations; higher = more toxic
[2] = tested on: Danio rerio embryo/larva; assay: max % larvae with edema across tested concentrations; higher = more toxic; extreme values may be limits of the assay
[3] = tested on: Danio rerio embryo/larva; assay: max % larvae with tail defects across tested concentrations; higher = more toxic; extreme values may be limits of the assay
[4] = tested on: Danio rerio embryo/larva; assay: max % larvae with blood pooling across tested concentrations; higher = more toxic; extreme values may be limits of the assay
[5] = tested on: Danio rerio embryo/larva; assay: max % larvae generally abnormal across tested concentrations; higher = more toxic; extreme values may be limits of the assay
[6] = tested on: Danio rerio embryo/larva; assay: max % larvae with spinal defects across tested concentrations; higher = more toxic; extreme values may be limits of the assay
[7] = tested on: Danio rerio embryo/larva; assay: max % larvae with abnormal position across tested concentrations; higher = more toxic; extreme values may be limits of the assay
[8] = tested on: Danio rerio embryo/larva; assay: max % larvae with craniofacial defects across tested concentrations; higher = more toxic; extreme values may be limits of the assay
[9] = tested on: Danio rerio embryo/larva; assay: max % larvae with uninflated swim bladder across tested concentrations; higher = more toxic; extreme values may be limits of the assay

Structure (SMILES)	max % larvae [1]	max % larvae [2]	max % larvae [3]	max % larvae [4]	max % larvae generally abnormal across tested concentrations [5]	max % larvae [6]	max % larvae [7]	max % larvae [8]	max % larvae [9]
OCC(F)(F)C(F)(F)C(F)(F)CO [Hexafluoroamylene glycol] (max tested concentration (log10 uM): 2)	0%	0%	0%	0%	0%	0%	0%	0%	0%
O=C(Cl)C(F)(F)C(F)(F)C(F)(F)C(F)(F)C(F)(F)C(F)(F)C(F)(F)F [Pentadecafluorooctanoyl chloride] (max tested concentration (log10 uM): 2)	0%	16.7%	12.5%	16.7%	16.7%	12.5%	12.5%	16.7%	16.7%
O=C(O)C(F)(F)C(F)(F)C(F)(F)C(F)(F)C(F)(F)C(F)(F)C(F)(F)F [Sodium perfluorooctanoate] (max tested concentration (log10 uM): 2)	0%	0%	0%	0%	0%	0%	0%	0%	0%
O=S(=O)(O)CCC(F)(F)C(F)(F)C(F)(F)C(F)(F)F [4:2 Fluorotelomer sulfonic acid] (max tested concentration (log10 uM): 2)	0%	0%	0%	0%	0%	0%	0%	0%	0%
FC(F)(F)C(F)(F)C(F)(F)C(F)(F)C(F)(F)C(F)(F)C(F)(F)C(F)(F)CCS [2-(Perfluorooctyl)ethanthiol] (max tested concentration (log10 uM): 1.60206)	0%	8.33%	0%	0%	8.33%	0%	0%	0%	8.33%
NC(=O)C(F)(F)C(F)(F)C(F)(F)C(F)(F)C(N)=O [Octafluoroadipamide] (max tested concentration (log10 uM): 2)	0%	0%	0%	0%	0%	0%	0%	0%	0%
C=C(C)C(=O)OCCC(F)(F)C(F)(F)C(F)(F)C(F)(F)C(F)(C(F)(F)F)C(F)(F)F [(Perfluoro-5-methylhexyl)ethyl 2-methylprop-2-enoate] (max tested concentration (log10 uM): 2)	0%	0%	0%	0%	0%	0%	0%	0%	0%
O=C(CC(=O)C(F)(F)C(F)(F)C(F)(F)F)c1cccs1 [(Perfluorobutyryl)-2-thenoylmethane] (max tested concentration (log10 uM): 0.477121)	0%	8.33%	0%	0%	8.33%	0%	0%	8.33%	16.7%
NC(=O)C(F)(F)C(F)(F)F [Pentafluoropropionamide] (max tested concentration (log10 uM): 2)	0%	0%	0%	0%	0%	0%	0%	0%	0%
O=C(O)C(F)(F)C(F)(F)C(F)(F)OC(F)(C(F)(F)F)C(F)(F)F [Perfluoro-4-isopropoxybutanoic acid] (max tested concentration (log10 uM): 2)	0%	0%	0%	0%	0%	0%	0%	0%	0%
O=C(CC(=O)C(F)(F)F)C(F)(F)F [1,1,1,5,5,5-Hexafluoro-2,4-pentanedione] (max tested concentration (log10 uM): 2)	0%	0%	0%	0%	0%	0%	0%	0%	0%
C=C(C)C(=O)OCC(F)(F)C(F)(F)C(F)(F)C(F)(F)C(F)(F)C(F)(F)C(F)(F)F [(Perfluoroheptyl)methyl methacrylate] (max tested concentration (log10 uM): 1.60206)	0%	0%	0%	0%	0%	0%	0%	0%	0%
C=CC(=O)OCC(F)(F)C(F)(F)C(F)(F)C(F)(F)C(F)(F)C(F)(F)C(F)(F)C(F)F [1H,1H,9H-Perfluorononyl acrylate] (max tested concentration (log10 uM): 2)	0%	9.09%	2.27%	0%	9.09%	0%	4.55%	9.09%	16.7%
O=S(=O)(O)C(F)(F)C(F)(F)C(F)(F)C(F)(F)C(F)(F)C(F)(F)F [Potassium perfluorohexanesulfonate] (max tested concentration (log10 uM): 2)	0%	44.4%	0%	16.7%	55.6%	0%	19.4%	33.3%	77.8%
FC(F)(F)COC(OCC(F)(F)F)OCC(F)(F)F [tris(Trifluoroethoxy)methane] (max tested concentration (log10 uM): 2)	0%	0%	0%	0%	0%	0%	0%	0%	0%
O=C(O)C=CC(F)(C(F)(F)F)C(F)(F)F [3-(Perfluoroisopropyl)-2-propenoic acid] (max tested concentration (log10 uM): 2)	0%	16.7%	8.33%	16.7%	16.7%	8.33%	8.33%	16.7%	16.7%

Structure (SMILES)	max % larvae [1]	max % larvae [2]	max % larvae [3]	max % larvae [4]	max % larvae generally abnormal across tested concentrations [5]	max % larvae [6]	max % larvae [7]	max % larvae [8]	max % larvae [9]
FC(F)(Br)C(F)(F)C(F)(F)C(F)(F)C(F)(F)C(F)(F)Br [1,6-Dibromododecafluorohexane] (max tested concentration (log10 uM): 2)	0%	4.17%	0%	0%	4.17%	0%	0%	0%	0%
NC(=O)C(F)(F)C(F)(F)C(F)(F)C(F)F [Perfluoropentanamide] (max tested concentration (log10 uM): 2)	0%	0%	0%	0%	0%	0%	0%	0%	0%
OCCC(F)(F)C(F)(F)C(F)(F)C(F)(F)C(F)(F)C(F)(F)C(F)(F)C(F)(F)F [2-(Perfluorooctyl)ethanol] (max tested concentration (log10 uM): 2)	0%	19.4%	0%	0%	22.2%	0%	8.33%	0%	44.4%
FC(F)(F)C(F)(F)C(F)(F)C(F)(F)CCI [1H,1H,2H,2H-Perfluorohexyl iodide] (max tested concentration (log10 uM): 2)	0%	8.33%	0%	0%	8.33%	0%	0%	0%	0%
CCOC(=O)CC(=O)C(F)(F)C(F)(F)F [Ethyl pentafluoropropionyl acetate] (max tested concentration (log10 uM): 2)	0%	0%	0%	0%	0%	0%	0%	0%	0%
COC(=O)C(F)(F)C(F)(F)OC(F)(C(F)(F)F)C(F)(F)OC(F)=C(F)F (centres undefined) [Methyl perfluoro(3-(1-ethenyloxypropan-2-yloxy)propanoate)] (max tested concentration (log10 uM): 1.60206)	0%	8.33%	0%	0%	8.33%	0%	4.17%	0%	0%
OCC(F)(F)C(F)(F)C(F)(F)C(F)F [1H,1H,5H-Perfluoropentanol] (max tested concentration (log10 uM): 2)	0%	0%	0%	0%	0%	0%	0%	0%	0%
FC(F)(F)C(F)(F)C(F)(F)C(F)(F)C(F)(F)C(F)(F)C(F)(F)CCI [1-Iodo-1H,1H,2H,2H-perfluorononane] (max tested concentration (log10 uM): 1.60206)	0%	0%	0%	0%	0%	0%	0%	0%	0%
O=C(O)C(F)(F)OC(F)(F)C(F)(F)OC(F)(F)C(=O)O [Perfluoro-3,6-dioxaoctane-1,8-dioic acid] (max tested concentration (log10 uM): 2)	0%	0%	0%	0%	0%	0%	0%	0%	0%
O=S(=O)(O)C(F)(F)C(F)(F)C(F)(F)C(F)(F)F [Perfluorobutanesulfonic acid] (max tested concentration (log10 uM): 2)	0%	0%	0%	0%	0%	0%	0%	0%	0%
O=C(O)C(F)(F)C(F)(F)C(F)(F)C(F)(F)C(F)(F)C(F)(F)F [Perfluoroheptanoic acid] (max tested concentration (log10 uM): 2)	0%	8.33%	0%	0%	8.33%	0%	0%	0%	16.7%
O=C(Cl)C(F)(F)C(F)(F)C(F)(F)C(F)(F)C(F)(F)C(F)(F)F [Perfluoroheptanoyl chloride] (max tested concentration (log10 uM): 2)	0%	16.7%	8.33%	0%	16.7%	8.33%	4.17%	16.7%	16.7%
C=C(C)C(=O)OCC(F)(F)C(F)(F)C(F)(F)C(F)F [1H,1H,5H-Perfluoropentyl methacrylate] (max tested concentration (log10 uM): 2)	0%	25%	16.7%	0%	25%	4.17%	0%	16.7%	33.3%
C=CC(=O)OCCC(F)(F)C(F)(F)C(F)(F)C(F)(F)C(F)(F)C(F)(F)C(F)(F)C(F)(F)F [2-(Perfluorooctyl)ethyl acrylate] (max tested concentration (log10 uM): 2)	0%	0%	0%	0%	0%	0%	0%	0%	0%
OCC(F)(F)OC(F)(F)C(F)(F)OC(F)(F)CO [1H,1H,8H,8H-Perfluoro-3,6-dioxaoctane-1,8-diol] (max tested concentration (log10 uM): 2)	0%	0%	0%	0%	0%	0%	0%	0%	0%
